Measured values taken from US20070231373A1, “Transdermal Steriod for Formulation” (HUNTER-FLEMING LIMITED, priority 2004, published 2007).

Experiment: Permeation behaviour through excised rat skin in Franz type cell
Format: in vitro ADME, Wistar rats
Conditions: conclusion from comparison with estradiol
Method: The materials used were as follows:
The excised abdominal rat skin was mounted on a Franz type cell (receiver volume: 3ml) with a water jacket connected to a water bath at 37° C. The patch was adhered to the stratum comeum side of the skin. The receiver compartment was filled with a mixture of PEG400 and water (1:3 by volume) and stirred with a star head magnetic bead driven by a constant speed motor. At predetermined times, 100 μl of sample was withdrawn from the receiver compartment, and the same volume of receptor solution was added to keep the volume constant. The drug concentration was analysed by HPLC.
For all adhesives, the amount of the drug which had permeated increased steadily with time.

SMILES	skin permeability (in words)
CC12CCC3C(C1CCC2=O)[C@@H](O)C[C@H]1C[C@@H](O)CCC31C (stereo partly drawn) [7β-OH EPIA, 7β-hydroxy-epiandrosterone]	potential skin permeability
C[C@]12CCC(=O)C=C1CC[C@@H]1[C@@H]2[C@@H](O)C[C@]2(C)C(=O)CC[C@@H]12 [HAD, 11β-hydroxy-4-androstene-3,17-dione]	potential skin permeability
